Reference: ChEMBL document CHEMBL1151269, “Caucanolides A-F, unusual antiplasmodial constituents from a colombian collection of the gorgonian coral Pseudopterogorgia bipinnata” (J Nat Prod, 2005)
Values after ≈ are worked out from the molar mass of the structure shown.

What was measured:
CCRF-CEM = assay: Cytotoxicity against human CCRF-CEM cells; format: functional, cell-based
MCF7 = assay: Cytotoxicity against human MCF7 cells; format: functional, cell-based
[1] = system: Mycobacterium tuberculosis; assay: Antibacterial activity against Mycobacterium tuberculosis H37Rv at 6.25 ug/ml; format: functional
NCI-H460 = assay: Cytotoxicity against human NCI-H460 cells; format: functional, cell-based
Plasmodium falciparum = assay: Antiplasmodial activity against chloroquine-resistant Plasmodium falciparum W2; format: functional, organism-based
T47D = assay: Cytotoxicity against human T47D cells; format: functional, cell-based

Row | Structure (SMILES) | IC50 (Plasmodium falciparum) | further results
1 | C=C(C)[C@H]([C@@H]1C=C(CCC(C=O)=C(C)C)C(=O)O1)[C@@]1(OC)C=C(C)C(=O)O1 [CAUCANOLIDE A] | 17 mg/L (≈ 45.4 µM) | IC50 (CCRF-CEM): 25.5 mg/L (≈ 68.1 µM); IC50 (MCF7): 7.6 mg/L (≈ 20.3 µM); Activity [1]: 21%; IC50 (NCI-H460): 12.5 mg/L (≈ 33.4 µM); IC50 (T47D): 25.8 mg/L (≈ 68.9 µM)
2 | C=C(C)[C@H]([C@@H]1C=C(CCC(C(=O)/N=C/N(C)C)=C(C)C)C(=O)O1)[C@@]1(OC)C=C(C)C(=O)O1 [CAUCANOLIDE B] | ≥ 50 mg/L | 
3 | CO[C@@]1([C@H]2[C@@H](O)C=C(CCC(C=O)=C(C)C)C(=O)OC2(C)C)C=C(C)C(=O)O1 [CAUCANOLIDE C] | ≥ 50 mg/L | 
4 | CO[C@]1(/C=C(\C)C[C@@H]2C=C(CCC(C=O)=C(C)C)C(=O)O2)C=C(C)C(=O)O1 [CAUCANOLIDE D] | 15 mg/L (≈ 40.1 µM) | 
5 | CO[C@@](C)(/C=C1/C=C(C)C(=O)O1)C[C@@H]1C=C(CCC(C=O)=C(C)C)C(=O)O1 [CAUCANOLIDE E] | ≥ 50 mg/L | 
6 | CO[C@](C)(/C=C1/C=C(C)C(=O)O1)C[C@@H]1C=C(CCC(C=O)=C(C)C)C(=O)O1 [CAUCANOLIDE F] | ≥ 50 mg/L | 
